Measurements reported in patent publication US7947312B2, “Method of preparation and composition of a water soluble extract of the bioactive component of the plant species Uncaria for enhancing immune, anti-inflammatory, anti-tumor and DNA repair processes of warm blooded animals” (priority 2002, dated 2011).

What was measured:
HL-60 W6899 cells = assay: HL-60 bioassay, microculture 5 days, clonogenicity estimated by MTT assay (Table 1); type: cell-based, human; settings: parameters are approximations
Method: An assay of biological activity of C-MED-100®'s active ingredient is prepared as follows: HL-60 […] cells are exposed in microculture at 5000 cells per well (96-well plates) for 5 days at 37 ? C. in a CO2 incubator. After incubation, the cells are washed with saline and clonogenicity estimated by MTT assay.

[1] = system: HL-60 human leukemic cells; assay: In vitro cytotoxicity in HL-60 cells, MTT assay (Table 2); type: cell-based
Method: In Table 2, the in vitro cytotoxicity of the various components were determined in HL-60 human leukemic cells using the MTT assay and calculation of IC50 values as described in detail elsewhere. Quinic acid ester content was determined by the Bartos method (Bartos, 1980). […] The quinic acid traveling between Rf=0.2-0.3 was eluted from the TLC plates with 1% aqueous ammonia and the relative quantity estimated by absorption at 200 nm as ± being less than 0.050 and “++++” denoting the highest amount detected, with a decrease in the number of “+” signs corresponding to a decrease in the amount of QA detected.

[2] = Acid and base hydrolysis of QAL and QA measured by Bartos reaction (Table 3); type: physicochemical; settings: 500 μg/test
Excerpt: To further characterize the QA analogs as the active ingredients in C-MED-100® in vitro, we determined the influence of base hydrolysis on the chemistry and biological activity of C-MED-100®. QAL is in fact a cyclic ester of QA, and as such it is an example representing the general class of QA esters. Elution from silica gel with 1% ammonia were the mandated chemical conditions necessary to remove the QA analog (i.e., active ingredient) from silica gel, which in turn favored the base hydrolysis of QA esters such as QAL to QA. If so, then identification of QA after base hydrolysis from the elution of silica gel, would then be consistent with the natural occurrence in C-MED-100® of a QA ester at Rf=0.2-0.3. […] It is quite clear that either strong acid or base treatment converted QAL to QA, and left only QA remaining, thus supporting the fact that the isolation of QA from C-MED-100® after base elution from silica gel was likely to have been originally present as a QA ester.

[3] = system: human HL-60 leukemic cells; assay: In vitro growth inhibition by QA salts in cultured HL-60 cells, MTT, 72 hr (FIG. 8); type: cell-based; settings: HL-60 cells
Method: QA was purchased from Sigma (>99%). QA salts were synthesized by neutralization with the appropriate base, i.e., NH4OH, NaOH, Ca(OH)2, Zn(OH)2, LiOH, KOH, lysine or histidine. Serial dilutions of test compounds were added to human HL-60 leukemic cells (0.05×10^6 cells/ml) in 96-well, flat bottomed microtiter plates to give final concentrations in the cultures up to 3000 μg/ml. The plates were incubated for 72 hr at 37 C, pulsed with 20 μl MTT (5 mg/ml) for 3 hr, and the color estimated spectrophotometrically at 540 nm as described previously. (Schweitzer, C M et al. Spectrophotometric determination of clonogenic capacity of leukemic cells in semisolid microtiter culture systems. Experimental Hematology 21: 573-578, 1993). IC50 values were calculated and compared based on the live/dead ratio of cells.

IκBα = assay: Western blotting of IκBα and phosphorylated IκBα in LPS-stimulated 70Z/3 cells; type: cell-based, mouse; settings: QA 2 mg/ml or PDTC 100 μM
Method: FIGS. 5C and 5D illustrate 70Z/3 cells (5×10^6) that were pre-treated with QA (2 mg/ml) or with PDTC (100 μM) as a positive control for two hours and thereafter stimulated with LPS (25 μg/ml) for the indicated time. Cytoplasmic extracts equalized for protein concentration were analyzed by western blotting using IκBα-specific antibodies. One representative experiment out of three (FIG. 5C) and one representative experiment out of two (FIG. 5D) are presented.
Preparation of cell extracts: The 70Z/3 cells were pretreated with QA (1 or 2 mg/ml) or with PDTC for 2 hours before they were stimulated with LPS for various time points. Whole cell extracts from the 70Z/3 cells (1×10^6) were prepared for analysis of the NF-κB signaling pathway. The cells were washed twice in PBS, resuspended in lysis buffer (75 mM Tris-HCl (pH 8.0), 100 mM NaCl, 5 mM KCl, 3 mM MgCl2, 2% NP-40, 1 mM PMSF and a protease inhibitor cocktail) (Roche Diagnostics Scandinavia AB) and incubated on ice for 10 min. The cell debris was pelleted and the supernatants were stored at −70° C. until Western Blot was performed.
Western blotting: Cellular extracts from 70Z/3 cells were separated on a 10% SDS polyacrylamide gel and the proteins were transferred to a nylon membrane. After blocking overnight in 5% dry fat-free milk in TBST, the membrane was incubated for 2 hrs with primary antibodies specific either to IκBα or to phosphorylated IκBα (both from Cell Signaling Technology Inc, Beverly, Mass.). The membranes were thereafter washed three times in TBST, and incubated with HRP-conjugated goat anti-rabbit antibodies (Amersham Pharmacia). The membranes were washed three times and chemoluminescence was detected using the ECL-reagent (Amersham Pharmacia) and x-ray film (CEA AB, Strängnäs, Sweden).

Q: With `O=C1O[C@@H]2C[C@@]1(O)C[C@@H](O)[C@H]2O` [Quinic acid lactone, quinic acid lactone] as the compound, how does the “Bioassay after 1% aqueous ammonia IC50 HL-60 cells” value (HL-60 W6899 cells; after 1% aqueous ammonia) read?
A: >3000 µg/mL

Q: And the “Bioassay efficacy using IC50 in HL-60 cells” value (HL-60 W6899 cells)?
A: 80 µg/mL

Q: What about the “HL-60 MTT IC50” value ([1]; no base hydrolysis, listed as QAL #2 batch syn.) of the same compound?
A: >2300 µg/mL

Q: What about the “HL-60 MTT IC50” value ([1]; sample treated +2 M NaOH, 2 hr) of the same compound?
A: 1600 µg/mL

Q: What about the “% Degraded (Bartos Reaction A490 nm)” value ([2]; 1M NaOH) of the same compound?
A: 74.1%

Q: What about the “% Degraded (Bartos Reaction A490 nm)” value ([2]; 1N HCl) of the same compound?
A: 58.2%

Q: With `O=C([O-])C1(O)CC(O)C(O)[C@H](O)C1.[Na+]` (some centres unmarked) [Quinic acid (QA) sodium salt] as the compound, how does the “HL-60 MTT IC50” value ([1]; no base hydrolysis) read?
A: 1500 µg/mL

Q: And the “in vitro cytotoxicity compared to C-MED-100 (FIG. 8)” value [3]?
A: in vitro cytotoxicity comparable to that of C-MED-100®

Q: Which results are given for `S=C(S)N1CCCC1` [PDTC, pyrollidine dithiocarbamate, reference compound]?
A: phosphorylation of IκBα (IκBα): potently inhibited; LPS-induced breakdown of IκBα (IκBα; 2 h pretreatment): inhibits both the breakdown of IκBα and its resynthesis

Q: For `O=C1O[C@@H]2C[C@@]1(O)C[C@@H](O)[C@H]2O` [QAL #1 batch syn., quinic acid lactone], which “HL-60 MTT IC50” value ([1]; no base hydrolysis) is on record?
A: 1200 µg/mL
